For orientation: IC50 means the concentration needed to halve the response being measured.

This assay addresses endogenous cellular BACE2 in the Ins1e rat cell line (Rattus norvegicus (Rat), UniProt Q6IE75). The assay can be described thus: Assay for BACE inhibition by measuring cellular TMEM27 cleavage (ELISA of shed hTMEM27 from INS-TMEM27 cells). The class given is cell-based. The note with it: assay a): cellular TMEM27 cleavage, INS-TMEM27 cells (superscript a). In short, it runs like this:
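Shed human TMEM27 is quantified by ELISA in medium of TetOn INS1e cells after 46 h at 37 °C. Compound is dosed across a concentration range, followed 2 h later by doxycycline induction at 500 ng/ml. Each concentration's readout is curve-fitted to give the EC50.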
A general note: An ELISA detects its analyte on a solid surface through an enzyme-linked reagent.

Structures are written as SMILES.

endogenous cellular BACE2 in the Ins1e rat cell line, sequence (Q6IE75 63-514): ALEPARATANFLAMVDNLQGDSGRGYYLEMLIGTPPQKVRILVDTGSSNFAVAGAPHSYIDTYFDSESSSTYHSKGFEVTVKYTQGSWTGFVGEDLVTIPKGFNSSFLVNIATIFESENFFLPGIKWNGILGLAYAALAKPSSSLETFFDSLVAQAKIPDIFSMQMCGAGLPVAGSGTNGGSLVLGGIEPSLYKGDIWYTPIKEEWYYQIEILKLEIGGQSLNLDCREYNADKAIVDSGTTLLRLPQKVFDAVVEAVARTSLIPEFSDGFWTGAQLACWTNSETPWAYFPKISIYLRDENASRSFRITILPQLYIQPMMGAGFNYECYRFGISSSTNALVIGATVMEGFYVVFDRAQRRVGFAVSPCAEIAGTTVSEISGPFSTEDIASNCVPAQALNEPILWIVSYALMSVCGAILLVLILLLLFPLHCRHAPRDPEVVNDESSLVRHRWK

In turn, `CN1C(=O)C(C)(C)[C@@](C)(c2cc(NC3CCc4c(C(=O)O)cccc43)ccc2F)N=C1N` (stereo partly drawn) [Example 136, 1-[3-((S)-2-Amino-1,4,5,5-tetramethyl-6-oxo-1,4,5,6-tetrahydro-pyrimidin-4-yl)-4-fluoro-phenylamino]-indan-4-carboxylic acid] yielded an IC50 of 2000 nM. Compound `Cc1ccc(Cl)cc1Nc1ccc(F)c([C@@]2(C)N=C(N)N(C)C(=O)C2(C)C)c1` [Example 118, (S)-2-Amino-6-(5-(5-chloro-2-methylphenylamino)-2-fluorophenyl)-3,5,5,6-tetramethyl-5,6-dihydropyrimidin-4(3H)-one] came in with an IC50 of 2 nM. `CN1C(=O)C(C)(C)[C@@](C)(c2cc(NC(=O)[C@@](C)(O)C(F)(F)F)ccc2F)N=C1N` [Example 142, (R)—N-(3-((S)-2-amino-1,4,5,5-tetramethyl-6-oxo-1,4,5,6-tetrahydropyrimidin-4-yl)-4-fluorophenyl)-3,3,3-trifluoro-2-hydroxy-2-methylpropanamide] yielded an IC50 of 89 nM. With `CN1C(=O)C(C)(C)[C@@](C)(c2cc(NC(=O)CC3CCCC3)ccc2F)N=C1N` [Example 26, (S)—N-(3-(2-amino-1,4,5,5-tetramethyl-6-oxo-1,4,5,6-tetrahydropyrimidin-4-yl)-4-fluorophenyl)-2-cyclopentylacetamide] the figure was 274 nM; with `Cc1ccc2c(c1)C(Nc1ccc(F)c([C@@]3(C)N=C(N)N(C)C(=O)C3(C)C)c1)CC2(C)C` (stereo partly drawn) [Example 46, (S)-2-Amino-6-[2-fluoro-5-(3,3,6-trimethyl-indan-1-ylamino)-phenyl]-3,5,5,6-tetramethyl-5,6-dihydro-3H-pyrimidin-4-one], 109 nM; with `CN1C(=O)C(C)(C)[C@@](C)(c2cc(NC(=O)C3(C)COC3)ccc2F)N=C1N` [Example 131], 256 nM. The compound `CN1C(=O)C(C)(C)[C@@](C)(c2cc(NC(=O)CC3CC3)ccc2F)N=C1N` [Example 28, (S)—N-(3-(2-amino-1,4,5,5-tetramethyl-6-oxo-1,4,5,6-tetrahydropyrimidin-4-yl)-4-fluorophenyl)-2-cyclopropylacetamide] showed an IC50 of 43 nM. `CCOC(=O)N1CCC(Nc2ccc(F)c([C@@]3(C)N=C(N)N(C)C(=O)C3(C)C)c2)C1` (stereo partly drawn) [Example 23, 3-[3-((S)-2-Amino-1,4,5,5-tetramethyl-6-oxo-1,4,5,6-tetrahydro-pyrimidin-4-yl)-4-fluoro-phenylamino]-pyrrolidine-1-carboxylic acid ethyl ester]: it took 7 nM to reach half-maximal inhibition (IC50). In turn, `COC(=O)c1ccc(Nc2ccc(F)c([C@@]3(C)N=C(N)N(C)C(=O)C3(C)C)c2)c(OC)c1` [Example 123, (S)-Methyl-4-(3-(2-amino-1,4,5,5-tetramethyl-6-oxo-1,4,5,6-tetrahydropyrimidin-4-yl)-4-fluorophenylamino)-3-methoxybenzoate] had an IC50 of 46 nM. On to `CN1C(=O)C(C)(C)[C@@](C)(c2cc(Nc3ccnn3Cc3ccccc3)ccc2F)N=C1N` [Example 107, (S)-2-Amino-6-(5-(1-benzyl-1H-pyrazol-5-ylamino)-2-fluorophenyl)-3,5,5,6-tetramethyl-5,6-dihydropyrimidin-4(3H)-one], for which inhibition was half-maximal at 2 nM (IC50). As for `CC(Nc1ccc(F)c([C@@]2(C)N=C(N)N(C)C(=O)C2(C)C)c1)c1nc2ccccc2s1` (stereo partly drawn) [Example 127, (S)-2-Amino-6-[5-(1-benzothiazol-2-yl-ethylamino)-2-fluoro-phenyl]-3,5,5,6-tetramethyl-5,6-dihydro-3H-pyrimidin-4-one], the IC50 is 73 nM. Compound `CN1C(=O)C(C)(C)[C@@](C)(c2cc(NCCC(F)(F)F)ccc2F)N=C1N` [Example 54, (S)-2-Amino-6-(2-fluoro-5-(3,3,3-trifluoropropylamino)phenyl)-3,5,5,6-tetramethyl-5,6-dihydropyrimidin-4(3H)-one] registered an IC50 of 76 nM. Next, `Cc1nc(CNc2ccc(F)c([C@@]3(C)N=C(N)N(C)C(=O)C3(C)C)c2)co1` [Example 109, (S)-2-Amino-6-{2-fluoro-5-[(2-methyl-oxazol-4-ylmethyl)-amino]-phenyl}-3,5,5,6-tetramethyl-5,6-dihydro-3H-pyrimidin-4-one]: 45 nM; `C[C@@H]1CC(Nc2ccc(F)c([C@@]3(C)N=C(N)N(C)C(=O)C3(C)C)c2)C[C@H](C)O1` (stereo partly drawn) [Example 155, (6S)-2-Amino-6-(5-((2R,6S)-2,6-dimethyltetrahydro-2H-pyran-4-ylamino)-2-fluorophenyl)-3,5,5,6-tetramethyl-5,6-dihydropyrimidin-4(3H)-one]: 123 nM. As for `CN1C(=O)C(C)(C)[C@@](C)(c2cc(NC3CCc4cc(Cl)ccc43)ccc2F)N=C1N` (stereo partly drawn) [Example 29, (S)-2-Amino-6-[5-(5-chloro-indan-1-ylamino)-2-fluoro-phenyl]-3,5,5,6-tetramethyl-5,6-dihydro-3H-pyrimidin-4-one], the half-maximal inhibitory concentration (IC50) was 32 nM.

With `CC(=O)OC1CC2CC1CC2Nc1ccc(F)c([C@@]2(C)N=C(N)N(C)C(=O)C2(C)C)c1` (stereo partly drawn) [Example 93, Acetic acid 5-[3-((S)-2-amino-1,4,5,5-tetramethyl-6-oxo-1,4,5,6-tetrahydro-pyrimidin-4-yl)-4-fluoro-phenylamino]-bicyclo[2.2.1]hept-2-yl ester], the IC50 amounted to 25 nM. Compound `CN1C(=O)C(C)(C)[C@@](C)(c2cc(Nc3cccc(F)c3)ccc2F)N=C1N` [Example 88, (S)-2-Amino-6-[2-fluoro-5-(3-fluoro-phenylamino)-phenyl]-3,5,5,6-tetramethyl-5,6-dihydro-3H-pyrimidin-4-one] displayed an IC50 of 795 nM. The compound `CN1C(=O)C(C)(C)[C@@](C)(c2cc(Nc3ccccn3)ccc2F)N=C1N` [Example 105, (S)-2-Amino-6-(2-fluoro-5-(pyridin-2-ylamino)phenyl)-3,5,5,6-tetramethyl-5,6-dihydropyrimidin-4(3H)-one] came in with a concentration for half-maximal inhibition (IC50) of 12 nM. `CN1C(=O)C(C)(C)[C@@](C)(c2cc(NC(=O)C3(O)CC3)ccc2F)N=C1N` [Example 134, 1-Hydroxy-cyclopropanecarboxylic acid [3-((S)-2-amino-1,4,5,5-tetramethyl-6-oxo-1,4,5,6-tetrahydro-pyrimidin-4-yl)-4-fluoro-phenyl]-amide] came in with an IC50 of 734 nM. In the case of `CN1C(=O)C(C)(C)[C@@](C)(c2cc(NC3CC(C)(C)c4ccccc43)ccc2F)N=C1N` (stereo partly drawn) [Example 106, (6S)-2-Amino-6-(5-(3,3-dimethyl-2,3-dihydro-1H-inden-1-ylamino)-2-fluorophenyl)-3,5,5,6-tetramethyl-5,6-dihydropyrimidin-4(3H)-one], the IC50 came to 2 nM. Next, `COC(F)(C(=O)Nc1ccc(F)c([C@@]2(C)N=C(N)N(C)C(=O)C2(C)C)c1)C(F)(F)F` (stereo partly drawn) [Example 20, N-(3-((S)-2-Amino-1,4,5,5-tetramethyl-6-oxo-1,4,5,6-tetrahydropyrimidin-4-yl)-4-fluorophenyl)-2,3,3,3-tetrafluoro-2-methoxypropanamide]: 66 nM. Next, `CN1C(=O)C(C)(C)[C@@](C)(c2cc(N[C@H]3CCC[C@@H]3O)ccc2F)N=C1N` [Example 92, (S)-2-Amino-6-(2-fluoro-5-((1S,2S)-2-hydroxycyclopentylamino)phenyl)-3,5,5,6-tetramethyl-5,6-dihydropyrimidin-4(3H)-one]: 279 nM.
